# Tested on: soil Fusarium sp.
# Assay: Activity against soil Fusarium sp.
compound,measurement,value
"CC(=O)O.CCCCCCCCCCCCNC(=N)N [dodine, 1-dodecylguanidinium acetate]",Activity against soil Fusarium sp.,active

# From US20180132483A1, “Method of Controlling Phytoparasitic Pests, Agrochemical Composition and Use Thereof” (priority 2016, published 2018)
